Measured values published in ChEMBL document CHEMBL1126116, “Synthesis and antibronchospastic activity of 8-alkoxy- and 8-(alkylamino)imidazo[1,2-a]pyrazines” (J Med Chem, 1992).

Experiments:
[1] = target: Heart phosphodiesterase (Bos taurus, UniProt Q01061+P14100+E1BN64); assay: Inhibition of bovine heart phosphodiesterase; format: protein assay
[2] = Compound was tested for it's acute toxicity in mice when given orally.; format: organism-based; conditions: mouse, in vivo, po
[3] = test system: Mus musculus; assay: Locomotor activity (no. light beam crossings in 50 min) in mice by intravenous dose at 55 umol/kg; format: functional
[4] = organism: Rattus norvegicus; assay: Inhibition of spontaneous contraction of isolated rat uterus; format: functional; conditions: read-out: ED50 (the source's name)
[5] = organism: Rattus norvegicus; assay: (§1) Inhibition of carbachol induced tracheal contraction; format: functional; conditions: Trachea, read-out: ED50 (the source's name)
[6] = test system: Mus musculus; assay: Locomotor activity (no. light beam crossings in 50 min) in mice by intravenous dose at 166 umol/kg; format: functional
[7] = Compound was tested for its acute toxicity in mice when given orally.; format: organism-based; conditions: mouse, in vivo, po
[8] = organism: Cavia porcellus; assay: as §1; format: functional; conditions: Trachea, read-out: ED50 (the source's name)

SMILES | IC50 [1] | LD50 [2] | Activity [3] | EC50 [4] | EC50 [5] | Activity [6] | LD50 [7] | EC50 [8]
CNc1nc(Br)cn2ccnc12 | 27 µM | 2200 µmol/kg | -75% | 160 µM | 24 µM | -83% | – | –
CCNc1nc(Br)cn2ccnc12 | 81 µM | 2900 µmol/kg | -13% | 130 µM | 65 µM | -73% | – | –
Nc1nc(Br)cn2ccnc12 | 267 µM | 1300 µmol/kg | -53% | 300 µM | 93 µM | -83% | – | –
Cn1c(=O)c2nc[nH]c2n(C)c1=O.O [THEOPHYLLINE] | 92 µM | 1900 µmol/kg | 130% | 900 µM | 920 µM | 170% | – | –
CNc1nc(Br)cn2cc(C#N)nc12 | 70 µM | 500 µmol/kg | -64% | 2 µM | 2 µM | – | – | –
CNc1nccn2c(Br)cnc12 | 337 µM | – | -25% | 100 µM | – | -57% | 4200 µmol/kg | 97 µM
